Results reported in patent publication US8957074B2 (Novartis AG, priority 2010, dated 2015).
Where two headings read alike, the source gives them in different places.

Assays:
CDK4/cyclin D1 = CDK4/cyclin D1 (Homo sapiens (Human), UniProt P11802); test: CDK4/cyclin D1 enzymatic activity assay (TR-FRET, phosphorylation of pRb at Ser780); format: biochemical
Method in brief: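 Phosphorylation at pRb Ser780, detected by TR-FRET, gave IC50s and kinetics. Enzyme: baculovirus/Sf21-expressed human CDK4/cyclin D1. ATP at 3 μM initiated the reaction; EDTA (pH 8.0) stopped it after 60 min at 22° C.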

[1] = tested on: phosphorylation of pRb at the Ser780 site in JeKo-1 mantle cell lymphoma cells; test: CDK4 cellular assay: ELISA of pRb phosphorylation at Ser780 in JeKo-1 cells; format: cell-based
CDK1/cyclin B = CDK1/cyclin B (Homo sapiens (Human), UniProt P06493); test: CDK1/cyclin B enzymatic activity assay (IMAP-FP); format: biochemical
Chain of CDK1/cyclin B (P06493 whole entry, species assumed): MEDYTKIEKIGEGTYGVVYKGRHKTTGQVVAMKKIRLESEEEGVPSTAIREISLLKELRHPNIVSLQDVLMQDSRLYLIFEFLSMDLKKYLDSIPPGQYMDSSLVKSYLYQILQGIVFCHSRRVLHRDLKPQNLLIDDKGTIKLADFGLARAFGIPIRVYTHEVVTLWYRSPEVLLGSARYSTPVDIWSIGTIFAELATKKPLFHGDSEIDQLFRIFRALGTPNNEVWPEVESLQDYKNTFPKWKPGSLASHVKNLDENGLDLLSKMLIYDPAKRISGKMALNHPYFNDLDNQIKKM
Chain of CDK1/cyclin B (P14635 whole entry partner, species assumed): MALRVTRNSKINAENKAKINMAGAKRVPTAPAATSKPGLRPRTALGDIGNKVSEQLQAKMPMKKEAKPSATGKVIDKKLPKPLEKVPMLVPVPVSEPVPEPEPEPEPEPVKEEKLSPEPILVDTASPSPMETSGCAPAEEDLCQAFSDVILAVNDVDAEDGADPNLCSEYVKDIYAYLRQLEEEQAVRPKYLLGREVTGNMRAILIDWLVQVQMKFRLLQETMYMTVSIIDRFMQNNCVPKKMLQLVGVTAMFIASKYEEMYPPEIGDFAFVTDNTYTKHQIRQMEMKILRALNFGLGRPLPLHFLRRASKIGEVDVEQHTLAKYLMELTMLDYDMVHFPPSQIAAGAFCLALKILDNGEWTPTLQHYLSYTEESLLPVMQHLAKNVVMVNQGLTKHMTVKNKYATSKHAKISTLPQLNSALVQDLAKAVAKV
From the text: CDK1/Cyclin B Enzymatic Activity Assay
A 384-well microtiter IMAP-FP™ (Molecular Devices Trade Mark Technology) endpoint assay was used for CDK1/cyclin B kinase activity measurements. The same assay was used for IC50 determination of small molecule inhibitors.

[2] = 0.3 nM CDK4/cyclin D1, 150 nM biotin-pRb (773-924), 3 μM ATP, 60 min at 22° C., read-out: Biochemical CDK4 enzyme IC50
[3] = Homo sapiens, JeKo-1, JeKo-1 cells, p-pRb % inhibition adjusted with total pRb levels, read-out: Normalized cellular ppRb inhibition IC50
[4] = Homo sapiens, JeKo-1, JeKo-1 cells, p-pRb Ser780 ELISA, non-normalized, read-out: Cellular ppRb inhibition IC50
[5] = […] CDK1/cyclin B, 100 nM Tamra Histone-H1 peptide, 20 μM ATP, 120 min at room temperature, read-out: Biochemical CDK1 enzyme IC50
[6] = Homo sapiens, JeKo-1 cells, p-pRb % inhibition adjusted with total pRb levels, read-out: Normalized cellular ppRb inhibition IC50
[7] = Homo sapiens, JeKo-1 cells, p-pRb Ser780 ELISA, non-normalized, read-out: Cellular ppRb inhibition IC50
[8] = JeKo-1 cells, p-pRb % inhibition adjusted with total pRb levels, read-out: Normalized cellular ppRb inhibition IC50
[9] = JeKo-1 cells, p-pRb Ser780 ELISA, non-normalized, read-out: Cellular ppRb inhibition IC50

Chain of CDK4/cyclin D1 (P11802 whole entry): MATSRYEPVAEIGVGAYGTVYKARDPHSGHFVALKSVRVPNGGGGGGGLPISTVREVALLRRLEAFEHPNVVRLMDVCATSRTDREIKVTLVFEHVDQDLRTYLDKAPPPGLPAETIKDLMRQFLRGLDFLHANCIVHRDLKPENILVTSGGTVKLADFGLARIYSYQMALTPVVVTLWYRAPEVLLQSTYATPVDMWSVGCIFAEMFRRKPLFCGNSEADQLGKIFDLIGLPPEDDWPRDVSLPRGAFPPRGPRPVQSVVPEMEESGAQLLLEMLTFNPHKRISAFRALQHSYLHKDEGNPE
Chain of CDK4/cyclin D1 (P24385 whole entry partner): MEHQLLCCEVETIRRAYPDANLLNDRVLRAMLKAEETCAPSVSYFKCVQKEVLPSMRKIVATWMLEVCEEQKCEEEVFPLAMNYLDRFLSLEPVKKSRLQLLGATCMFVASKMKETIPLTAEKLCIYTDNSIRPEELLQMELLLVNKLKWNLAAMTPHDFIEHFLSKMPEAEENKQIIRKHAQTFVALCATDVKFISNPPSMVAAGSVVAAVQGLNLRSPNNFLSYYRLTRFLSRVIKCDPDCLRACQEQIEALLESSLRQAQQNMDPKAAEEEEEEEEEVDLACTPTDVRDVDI

| Compound | IC50 (CDK4/cyclin D1; [2]) | IC50 (CDK1/cyclin B; [5]) | IC50 [1, 6] | IC50 [1, 7] | other results |
| --- | --- | --- | --- | --- | --- |
| CN(C)C(=O)c1cc2cnc(Nc3ccc(N4CC5CNCC5C4=O)cn3)nc2n1C1CCCC1 (racemic) [Example 84, 7-cyclopentyl-N,N-dimethyl-2-(5-cis-1-oxohexahydropyrrolo[3,4-c]pyrrol-2(1H)-yl)pyridin-2-ylamino)-7H-pyrrolo[2,3-d]pyrimidine-6-carboxamide] | < 0.005 µM | – | – | – | IC50 [1, 3]: 0.01 to 0.028 µM; IC50 [1, 4]: 0.007 to 0.017 µM; IC50 (CDK1/cyclin B; 0.25 nM CDK1/cyclin B, 100 nM Tamra Histone-H1 peptide, 20 μM ATP, 120 min at room temperature, read-out: Biochemical CDK1 enzyme IC50): 18 µM |
| CN1CCCC2(C1)CN(c1ccc(Nc3ncc4cc(C(=O)N(C)C)n(C5CCCC5)c4n3)nc1)C(=O)O2 (stereo not drawn) [Example 108, 7-cyclopentyl-N,N-dimethyl-2-(5-(7-methyl-2-oxo-1-oxa-3,7-diazaspiro[4.5]decan-3-yl)pyridin-2-ylamino)-7H-pyrrolo[2,3-d]pyrimidine-6-carboxamide] | 0.013 µM | > 15 µM | – | – | IC50 [1, 3]: 0.069 µM; IC50 [1, 4]: 0.061 µM |
| CN(C)C(=O)c1cc2cnc(Nc3ccc(C(=O)N4C[C@@H]5C[C@H]4C[C@H]5O)cn3)nc2n1C1CCCC1 [Example 31, 7-cyclopentyl-2-(5-((1S,4S,5R)-5-hydroxy-2-azabicyclo[2.2.1]heptane-2-carbonyl)pyridin-2-ylamino)-N,N-dimethyl-7H-pyrrolo[2,3-d]pyrimidine-6-carboxamide] | 0.069 to 0.081 µM | > 15 µM | 0.497 to 0.591 µM | 0.252 to 0.352 µM | – |
| CN(C)C(=O)c1cc2cnc(Nc3ccc(C(=O)N4CC5CCC(C4)N5)cn3)nc2n1C1CCCOC1 (stereo not drawn) [Example 65, 2-(5-(3,8-diazabicyclo[3.2.1]octane-3-carbonyl)pyridin-2-ylamino)-N,N-dimethyl-7-(tetrahydro-2H-pyran-3-yl)-7H-pyrrolo[2,3-d]pyrimidine-6-carboxamide] | 0.076 µM | > 15 µM | 0.132 to 0.458 µM | 0.126 to 0.211 µM | – |
| CN(C)C(=O)c1cc2cnc(Nc3ccc(C(=O)N4CCC5COCC(C4)N5)cn3)nc2n1C1CCCC1 (stereo not drawn) [Example 75, 7-Cyclopentyl-2-[5-(8-oxa-3,10-diaza-bicyclo[4.3.1]decane-3-carbonyl)-pyridin-2-ylamino]-7H-pyrrolo[2,3-d]pyrimidine-6-carboxylic acid dimethylamide] | – | – | – | – | IC50 (CDK4/cyclin D1): 0.047 µM; IC50 [1, 3]: 0.525 µM; IC50 [1, 4]: 0.081 µM; IC50 (CDK1/cyclin B): > 15 µM |
| CN(C)C(=O)c1cc2cnc(Nc3ccc(N4C[C@H]5CC[C@@H](CC4=O)N5CC(F)(F)F)cn3)nc2n1C1CCCC1 [Example 144, 7-cyclopentyl-N, N-dimethyl-2-(5-((1R,6S)-4-oxo-9-(2,2,2-trifluoroethyl)-3,9-diazabicyclo[4.2.1]nonan-3-yl)pyridin-2-ylamino)-7H-pyrrolo[2,3-d]pyrimidine-6-carboxamide] | 0.019 µM | > 15 µM | 0.049 µM | 0.031 µM | – |
| CC(C)N1C2CCC1CN(C(=O)c1ccc(Nc3ncc4cc(C(=O)N(C)C)n(C5CCCC5)c4n3)nc1)C2 [Example 29, 7-cyclopentyl-2-(5-(8-isopropyl-3,8-diazabicyclo[3.2.1]octane-3-carbonyl)pyridin-2-ylamino)-N,N-dimethyl-7H-pyrrolo[2,3-d]pyrimidine-6-carboxamide] | 0.014 to 0.017 µM | > 15 µM | 0.02 to 0.048 µM | 0.024 to 0.034 µM | – |
| CN(C)C(=O)c1cc2cnc(Nc3ccc(N4C[C@@H]5CC[C@H](CC4=O)N5)cn3)nc2n1C1CCCC1 [Example 124, 7-Cyclopentyl-2-[5-((1S,6R)-4-oxo-3,9-diaza-bicyclo[4.2.1]non-3-yl)-pyridin-2-ylamino]-7H-pyrrolo[2,3-d]pyrimidine-6-carboxylic acid dimethylamide] | 0.023 µM | > 15 µM | – | – | IC50 [1, 8]: 0.261 µM; IC50 [1, 9]: 0.158 µM |
| CN(C)C(=O)c1cc2cnc(Nc3ccc(C(=O)N4CC5CCC(C4)N5CCO)cn3)nc2n1C1CCCC1 [Example 28, 7-cyclopentyl-2-(5-(8-(2-hydroxyethyl)-3,8-diazabicyclo[3.2.1]octane-3-carbonyl)pyridin-2-ylamino)-N,N-dimethyl-7H-pyrrolo[2,3-d]pyrimidine-6-carboxamide] | 0.022 µM | > 15 µM | – | – | IC50 [1, 3]: 0.069 µM; IC50 [1, 4]: 0.063 µM |
| CNC(=O)c1cc2cnc(Nc3ccc(C(=O)N4CC5CCC(C4)N5)cn3)nc2n1C1CCCC1 [Example 23, 7-Cyclopentyl-2-[5-(3,8-diaza-bicyclo[3.2.1]octane-3-carbonyl)-pyridin-2-ylamino]-7H-pyrrolo[2,3-d]pyrimidine-6-carboxylic acid methylamide] | 1.63 µM | > 15 µM | – | – | IC50 [1, 3]: 6.77 µM; IC50 [1, 4]: 6.77 µM |
| CC(=O)NCC(=O)N1[C@@H]2CC[C@H]1CN(c1ccc(Nc3ncc4cc(C(=O)N(C)C)n(C5CCCC5)c4n3)nc1)C(=O)C2 [Example 138, 2-(5-((1S,6R)-9-(2-acetamidoacetyl)-4-oxo-3,9-diazabicyclo[4.2.1]nonan-3-yl)pyridin-2-ylamino)-7-cyclopentyl-N,N-dimethyl-7H-pyrrolo[2,3-d]pyrimidine-6-carboxamide] | 0.106 µM | > 15 µM | – | 1.6 µM | – |
| CN(C)C(=O)c1cc2cnc(Nc3ccc(N4CC5(CC4=O)CC4CCC(C5)N4)cn3)nc2n1C1CCCC1 (stereo not drawn) [Example 118, 7-cyclopentyl-N,N-dimethyl-2-(5-(5′-oxo-8-azaspiro[bicyclo[3.2.1]octane-3,3′-pyrrolidine]-1′-yl)pyridin-2-ylamino)-7H-pyrrolo[2,3-d]pyrimidine-6-carboxamide] | 0.005 to 0.014 µM | > 15 µM | 0.047 to 0.153 µM | 0.034 to 0.147 µM | – |
| CN(C)C(=O)c1cc2cnc(Nc3ccc(C(=O)N4[C@@H]5CC[C@H]4C[C@@H](O)C5)cn3)nc2n1C1CCCC1 [Example 44, 7-Cyclopentyl-2-[5-((1S,3R,5R)-3-hydroxy-8-aza-bicyclo[3.2.1]octane-8-carbonyl)-pyridin-2-ylamino]-7H-pyrrolo[2,3-d]pyrimidine-6-carboxylic acid dimethylamide] | 0.177 to 0.351 µM | > 15 µM | – | – | IC50 ([1]; Homo sapiens, JeKo-1, read-out: Cellular ppRb inhibition IC50): 0.72 to 1.49 µM; IC50 ([1]; Homo sapiens, JeKo-1, read-out: Normalized cellular ppRb inhibition IC50): 0.778 µM |
| CN1CC2(C)CN(C(=O)c3ccc(Nc4ncc5cc(C(=O)N(C)C)n(C6CCCC6)c5n4)nc3)CC(C)(C1)C2O (stereo not drawn) [Example 39, 7-Cyclopentyl-2-(5-(9-hydroxy-1,5,7-trimethyl-3,7-diazabicyclo[3.3.1]nonane-3-carbonyl)pyridin-2-ylamino)-N,N-dimethyl-7H-pyrrolo[2,3-d]pyrimidine-6-carboxamide] | 0.077 µM | > 15 µM | 0.136 µM | 0.079 µM | – |
| CN(C)C(=O)c1cc2cnc(Nc3ccc(C(=O)N4CC5CCC(C4)C5O)cn3)nc2n1C1CCCC1 [Example 33, 7-cyclopentyl-2-(5-((1R,5S,8r)-8-hydroxy-3-azabicyclo[3.2.1]octane-3-carbonyl)pyridin-2-ylamino)-N,N-dimethyl-7H-pyrrolo[2,3-d]pyrimidine-6-carboxamide] | 0.094 to 0.144 µM | > 15 µM | 0.43 to 1.3 µM | 0.377 to 0.919 µM | – |
| CC(C)N1[C@@H]2CC[C@H]1CN(c1ccc(Nc3ncc4cc(C(=O)N(C)C)n(C5CCCC5)c4n3)nc1)C(=O)C2 [Example 142, 7-Cyclopentyl-2-[5-((1S,6R)-9-isopropyl-4-oxo-3,9-diaza-bicyclo[4.2.1]non-3-yl)-pyridin-2-ylamino]-7H-pyrrolo[2,3-d]pyrimidine-6-carboxylic acid dimethylamide] | 0.034 µM | > 15 µM | 0.013 µM | 0.006 µM | – |
| CN(C)C(=O)c1cc2cnc(Nc3ccc(C(=O)N4[C@@H]5CC[C@H]4C[C@H](O)C5)cn3)nc2n1C1CCCC1 [Example 43, 7-Cyclopentyl-2-[5-((1S,3S,5R)-3-hydroxy-8-aza-bicyclo[3.2.1]octane-8-carbonyl)-pyridin-2-ylamino]-7H-pyrrolo[2,3-d]pyrimidine-6-carboxylic acid dimethylamide] | 0.176 to 0.198 µM | > 15 µM | – | – | IC50 [1, 8]: 0.469 to 1.28 µM; IC50 [1, 9]: 0.461 to 0.745 µM |
| CN(C)C(=O)c1cc2cnc(Nc3ccc(C(=O)N4CC5CC(C4)N(C)C5)cn3)nc2n1C1CCCC1 (stereo not drawn) [Example 13, 7-Cyclopentyl-2-[5-(6-methyl-3,6-diaza-bicyclo[3.2.1]octane-3-carbonyl)-pyridin-2-ylamino]-7H-pyrrolo[2,3-d]pyrimidine-6-carboxylic acid dimethylamide] | 0.006 µM | 8.44 µM | 0.145 µM | 0.065 µM | – |
| CCOC(=O)N1C2CCC1CN(C(=O)c1ccc(Nc3ncc4cc(C(=O)N(C)C)n(C5CCCC5)c4n3)nc1)C2 [Example 64, 3-[6-(7-Cyclopentyl-6-dimethylcarbamoyl-7H-pyrrolo[2,3-d]pyrimidin-2-ylamino)-pyridine-3-carbonyl]-3,8-diaza-bicyclo[3.2.1]octane-8-carboxylic acid ethyl ester] | 0.072 to 0.179 µM | > 15 µM | 0.771 to 2.2 µM | 0.323 to 0.466 µM | – |
